Reference: publication PMC4047118, “BM-1197: A Novel and Specific Bcl-2/Bcl-xL Inhibitor Inducing Complete and Long-Lasting Tumor Regression In Vivo” (PLoS ONE, 2014)
Like-named read-outs stand apart in the source and are kept apart here.

Experiments:
DMS273 = test: SCLC cell growth inhibition (WST-8), DMS273; type: cell-based; conditions: Homo sapiens, DMS-273; 96-h incubation, means ± SD (n = 3–6)
Experimental: (§1) All the SCLC cell lines were purchased from American Type Culture Collection (Manassas, VA) and cultured as recommended. All these cell lines were passaged fewer than 6 months after purchase. MCL1 knockout (MCL1^−/−) MEF cells were kindly provided by Dr. David Huang (The Walter and Eliza Hall Institute of Medical Research, Melbourne, Australia). Cell growth inhibition was evaluated by means of a WST-8 assay (Dojindo, Rockville, MD) as described previously. Mitochondrial membrane potential was determined by JC-1 staining using a JC-1 Mitochondrial Membrane Potential Assay kit (Cayman). Apoptosis analysis was performed using an Annexin V/propidium iodide (PI) apoptosis detection kit (Roche Applied Sciences, Indianapolis, IN).

Bcl-xL [1] = molecular target: T1, Bcl-xL (Mus musculus, UniProt Q64373); test: cellular thermal shift assay (CETSA), Bcl-xL; type: cell-based; conditions: 1 µM, 1 h, MEF MCL1−/− cells
T1 construct: endogenous in cells; host or cells: MEF MCL1-/- cells
Experimental: (§2) Drug-target engagement was assessed using CETSA as described by Molina et al.. Briefly, cells were treated with drugs for 1 h, then harvested, washed with PBS, and resuspended in PBS. The resuspended cells were freeze-thawed 4 times. The soluble fraction (lysate) was separated from cell debris by centrifugation at 20000×g for 20 minutes at 4°C and then analyzed by Western blots.
(§3) Drug-treated cells were heated at gradient temperature from 42°C to 62°C for 3 min then freeze-thawed 4 times. The soluble fractions of the lysed cells were analyzed by immunoblotting. (B) MEF MCL1^− ^/− cells were treated with drugs at the indicated doses for 1 h before collected for CETSA.

H146 = test: SCLC cell growth inhibition (WST-8), H146; type: cell-based; conditions: Homo sapiens
Experimental: as §1
Data are representative of two independent experiments.

H1963 = test: SCLC cell growth inhibition (WST-8), H1963; type: cell-based; conditions: Homo sapiens, NCI-H1963; 96-h incubation, means ± SD (n = 3–6)
Experimental: as §1

H187 = test: SCLC cell growth inhibition (WST-8), H187; type: cell-based; conditions: Homo sapiens, NCI-H187; 96-h incubation, means ± SD (n = 3–6)
Experimental: as §1

H211 = test: SCLC cell growth inhibition (WST-8), H211; type: cell-based; conditions: Homo sapiens, NCI-H211; 96-h incubation, means ± SD (n = 3–6)
Experimental: as §1

Bcl-2 [2] = molecular target: T2, Bcl-2 (Mus musculus, UniProt P10417); test: cellular thermal shift assay (CETSA), Bcl-2; type: cell-based; conditions: 1 µM, 1 h, MEF MCL1−/− cells
T2 construct: endogenous in cells; host or cells: MEF MCL1-/- cells
Experimental: as §2, §3

SW1271 = test: SCLC cell growth inhibition (WST-8), SW1271; type: cell-based; conditions: Homo sapiens, 96-h incubation, means ± SD (n = 3–6)
Experimental: as §1

[3] = test system: MCL1-deficient (MCL1−/−) MEF cells; test: cell growth inhibition, WST assay, MCL1-deficient MEF; type: cell-based, mouse; conditions: Mus musculus, MEF, 72 h; 3 days, WST assay
Experimental: as §1
(§4) (B) MCL1^−/− cells were treated with 100 nM of BM-1197 for 16 h and stained with Annexin V/PI for flow cytometry. […] They are given in the order upper left, upper right, lower left, lower right.

H1417 = test: SCLC cell growth inhibition (WST-8), H1417; type: cell-based; conditions: Homo sapiens, NCI-H1417; 96-h incubation, means ± SD (n = 3–6)
Experimental: as §1

DMS53 = test: SCLC cell growth inhibition (WST-8), DMS53; type: cell-based; conditions: Homo sapiens, DMS-53; 96-h incubation, means ± SD (n = 3–6)
Experimental: as §1

H82 = test: SCLC cell growth inhibition (WST-8), H82; type: cell-based; conditions: Homo sapiens, NCI-H82; 96-h incubation, means ± SD (n = 3–6)
Experimental: as §1

[4] = test system: MCL1-wild-type (WT) MEF cells; test: cell growth inhibition, WST assay, wild-type MEF; type: cell-based; conditions: Mus musculus, 72 h, 3 days
Experimental: as §1, §4

H196 = test: SCLC cell growth inhibition (WST-8), H196; type: cell-based; conditions: Homo sapiens, NCI-H196; 96-h incubation, means ± SD (n = 3–6)
Experimental: as §1

H889 = test: SCLC cell growth inhibition (WST-8), H889; type: cell-based; conditions: Homo sapiens, NCI-H889; 96-h incubation, means ± SD (n = 3–6)
Experimental: as §1

DMS79 = test: SCLC cell growth inhibition (WST-8), DMS79; type: cell-based; conditions: Homo sapiens, DMS-79; 96-h incubation, means ± SD (n = 3–6)
Experimental: as §1

H146 xenograft tumors = test: H146 subcutaneous xenograft model; type: in vivo, SCID mice
Experimental: Tumor sizes were measured 2–3 times per week. Tumor growth inhibition was calculated by using the formula: 100% (mean volume of controls - mean volume of treated)/mean volume of controls.
Figure 10 In vivo antitumor activity of BM-1197. […] Data shown are mean ± SEM for 6–8 mice. (E & F) SCID mice bearing H146 or H1963 cells were treated with 10 mg/kg of BM-1197 IV for the indicated times. Tumor lysates were analyzed by immunoblotting.

Bcl-xL [5] = molecular target: Bcl-xL (Homo sapiens, UniProt Q07817); conditions: cited from earlier work
[6] = test system: four small-cell lung cancer cell lines sensitive to ABT-263; design: method as in PMID 23448298; conditions: cited from earlier work
Bcl-2 [7] = molecular target: Bcl-2 (Homo sapiens, UniProt P10415); conditions: cited from earlier work
[8] = test system: H146 small-cell lung cancer xenograft; design: method as in PMID 23448298; conditions: H146 xenograft in SCID mice; cited from earlier work

Chain of Bcl-xL (Homo sapiens, UniProt Q07817) (Q07817 whole entry): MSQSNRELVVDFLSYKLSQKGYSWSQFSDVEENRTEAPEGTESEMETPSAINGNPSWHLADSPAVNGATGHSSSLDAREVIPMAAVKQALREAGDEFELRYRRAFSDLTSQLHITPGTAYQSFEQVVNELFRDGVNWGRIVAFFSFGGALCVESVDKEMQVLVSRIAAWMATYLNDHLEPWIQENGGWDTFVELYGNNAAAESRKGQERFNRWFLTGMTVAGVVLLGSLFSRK
Chain of Bcl-2 (Homo sapiens, UniProt P10415) (P10415 whole entry): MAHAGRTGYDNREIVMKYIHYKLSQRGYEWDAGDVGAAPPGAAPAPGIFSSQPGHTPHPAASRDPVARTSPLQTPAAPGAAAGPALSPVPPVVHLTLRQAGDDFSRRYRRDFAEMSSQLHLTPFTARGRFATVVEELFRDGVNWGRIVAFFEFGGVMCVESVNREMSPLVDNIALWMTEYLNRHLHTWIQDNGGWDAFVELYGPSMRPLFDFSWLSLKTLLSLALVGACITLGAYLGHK
T2 sequence (P10417 whole entry): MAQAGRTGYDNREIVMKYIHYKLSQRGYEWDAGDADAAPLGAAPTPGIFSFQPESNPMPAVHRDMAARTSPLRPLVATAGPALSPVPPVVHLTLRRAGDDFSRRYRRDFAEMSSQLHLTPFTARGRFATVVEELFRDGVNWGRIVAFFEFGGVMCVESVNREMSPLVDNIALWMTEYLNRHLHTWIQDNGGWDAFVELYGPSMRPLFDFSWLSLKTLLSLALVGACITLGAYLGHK
T1 sequence (Q64373 whole entry): as the sequence (Q07817 whole entry) above, with G40E, S43A, M45R, A168S, E193D counted along it

Question: Which IC50 (DMS273) does the source give for `CC1(C)CCC(c2ccc(Cl)cc2)=C(CN2CCN(c3ccc(C(=O)NS(=O)(=O)c4ccc(N[C@H](CCN5CCOCC5)CSc5ccccc5)c(S(=O)(=O)C(F)(F)F)c4)cc3)CC2)C1` [ABT-263, reference compound] here?
Answer: > 2000 nM

Question: What about the “thermal stability of Bcl-xL protein” value (Bcl-xL [1]) of the same compound?
Answer: enhanced

Question: What about the IC50 (H146; NCI-H146, 96 h, read-out: IC50 (1% FBS), H146, 4 days, WST assay, 1% FBS) of the same compound?
Answer: 3.5 nM

Question: And the IC50 (H146; NCI-H146, 96 h, read-out: IC50 (1% FBS+3% HSA), H146, 4 days, WST assay, 1% FBS+3% HSA)?
Answer: 83 nM

Question: And the IC50 (H146; NCI-H146, 96 h, read-out: IC50 (10% FBS), H146, 4 days, WST assay, 10% FBS)?
Answer: 26.8 nM

Question: And the IC50 (H146; NCI-H146, 96 h, read-out: IC50 (50% FBS), H146, 4 days, WST assay, 50% FBS)?
Answer: 75.2 nM

Question: And the IC50 (H146; NCI-H146, 96-h incubation, means ± SD (n = 3–6), read-out: IC50 cell growth, H146)?
Answer: 24 ± 12 nM

Question: What about the IC50 (H1963) of the same compound?
Answer: 30 ± 17 nM

Question: And the IC50 (H187)?
Answer: 70 ± 29 nM

Question: And the IC50 (H211)?
Answer: 66 ± 50 nM

Question: What about the “thermal stability of Bcl-2 protein” value (Bcl-2 [2]) of the same compound?
Answer: enhanced

Question: What about the IC50 (SW1271) of the same compound?
Answer: > 2000 nM

Question: What about the IC50 [3] of the same compound?
Answer: 41 ± 3 nM

Question: And the IC50 (H1417)?
Answer: 79 ± 31 nM

Question: And the IC50 (DMS53)?
Answer: 197 ± 50 nM

Question: What about the IC50 (H82) of the same compound?
Answer: > 2000 nM

Question: And the IC50 [4]?
Answer: > 2000 nM

Question: And the IC50 (H196)?
Answer: > 2000 nM

Question: What about the IC50 (H889) of the same compound?
Answer: 30 ± 11 nM

Question: And the IC50 (DMS79)?
Answer: 430 ± 343 nM

Question: And the “tumors regrown 29 days after the last treatment” value (H146 xenograft tumors; 100 mg/kg daily oral dosing)?
Answer: Four out of 8

Question: And the “tumors regrown 57 days after the last treatment” value (H146 xenograft tumors; 100 mg/kg daily oral dosing)?
Answer: 7 of the 8

Question: And the tumor regression (H146 xenograft tumors; 100 mg/kg daily oral dosing (5 days per week), 14 days after the start of the treatment)?
Answer: regressed H146 tumors to a barely palpable state

Question: And the “weight loss compared to control group” value (H146 xenograft tumors; all dose-schedules in H146 model, no other signs of toxicity)?
Answer: no statistically significant weight loss

Question: Which Ki (Bcl-xL [5]) does the source give for `Cc1c(C(=O)NS(C)(=O)=O)c(-c2cccc(N3CCN(c4ccc(NS(=O)(=O)c5ccc(N[C@H](CCN(C)C)CSc6ccccc6)c([N+](=O)[O-])c5)cc4)CC3)c2)c(-c2ccc(Cl)cc2)n1C(C)C` [BM-1074] here?
Answer: < 1 nM

Question: What about the IC50 ([6]; four small-cell lung cancer cell lines sensitive to ABT-263, read-out: IC50 cancer cell growth) of the same compound?
Answer: 1 to 2 nM

Question: And the “times more potent than ABT-263” value ([6]; four small-cell lung cancer cell lines)?
Answer: > 10 times

Question: What about the Ki (Bcl-2 [7]) of the same compound?
Answer: < 1 nM

Question: And the tumor regression [8]?
Answer: rapid, complete, and durable tumor regression
